Laboratory results reported in PMC9147323, “Phytochemical content, especially spermidine derivatives, presenting antioxidant and antilipoxygenase activities in Thai bee pollens” (PeerJ, 2022).
Values joined by “and” are separate entries in the source; they are usually repeats but may differ in a detail not shown here. Identical values can stand only once. Marks after values point to notes of the source that are not given here.

Legend:
[1] = ABTS radical scavenging activity / Trolox equivalent antioxidant capacity (TEAC); conditions: for ABTS (µmol TE/g): fractions after SiG60-CC and HPLC, mean ± 1SD; for ABTS EC50: mean ± 1 SD
Procedure: The TEAC assay followed the described method ([Suriyatem et al., 2017]). The stock ABTS^•+ solution was prepared by reacting 7 mM ABTS solution with 2.45 mM potassium persulphate solution in distilled water at a 1:1 (v/v) ratio in the dark at room temperature for 16 h before use. The working ABTS^•+ solution was prepared by diluting the stock ABTS^•+ solution (one mL) with ethanol (35 mL) to get an absorbance at 734 nm (A734) of 0.700 ± 0.025. […] The percentage of inhibition was calculated according to Eq. (2), (2) % ABTS radical scavenging activity=A−B/A×100, where A is the A734of the negative control and B is the A734of the treatment.

[2] = Ferric reducing antioxidant power (FRAP); conditions: fractions after SiG60-CC and HPLC; mean ± 1SD
Procedure: The FRAP assay was performed as previously described ([Sun et al., 2017]). The FRAP reagent was freshly prepared by mixing 100 mL of 300 mM acetate buffer (pH 3.6), 10 mL of 10 mM 2,4,6-tris(2pyridyl)-s-triazine solution in 40 mM hydrochloric acid, and 10 mL of 20 mM ferric chloride solution. Later, 100 µL of the sample at a desired concentration was added to three mL of the FRAP reagent and incubated at 37 °C in a water bath for 6 min. The absorbance was measured at a wavelength of 593 nm. Aqueous solutions of ferrous sulfate (0–2,000 µM) were used to establish the standard graph and the reducing capacity was expressed as µmole of Fe^2+/g extract. Each assay was performed in triplicate.

[3] = DPPH free radical scavenging activity assay; conditions: mean ± 1 SD
Procedure: The potential of the partitioned extracts was determined as previously described ([Khongkarat et al., 2020]). Five different concentrations of each sample were prepared in DMSO. […] The absorbance was measured at a wavelength of 517 nm ([…]) using a microplate reader. Ascorbic acid (vitamin C) was used as the standard reference. Each assay was performed in triplicate. The free radical scavenging activity was calculated from Eq. (1): (1) % DPPH radical scavenging activity=A-B/A×100, where A is the […] the negative control and B is the […] of the treatment.

[4] = biological target: T1, LOX from soybean (Glycine max, UniProt P08170); test: In vitro LOXI activity; conditions: mean ± 1 SD
T1 sequence (P08170 1-839): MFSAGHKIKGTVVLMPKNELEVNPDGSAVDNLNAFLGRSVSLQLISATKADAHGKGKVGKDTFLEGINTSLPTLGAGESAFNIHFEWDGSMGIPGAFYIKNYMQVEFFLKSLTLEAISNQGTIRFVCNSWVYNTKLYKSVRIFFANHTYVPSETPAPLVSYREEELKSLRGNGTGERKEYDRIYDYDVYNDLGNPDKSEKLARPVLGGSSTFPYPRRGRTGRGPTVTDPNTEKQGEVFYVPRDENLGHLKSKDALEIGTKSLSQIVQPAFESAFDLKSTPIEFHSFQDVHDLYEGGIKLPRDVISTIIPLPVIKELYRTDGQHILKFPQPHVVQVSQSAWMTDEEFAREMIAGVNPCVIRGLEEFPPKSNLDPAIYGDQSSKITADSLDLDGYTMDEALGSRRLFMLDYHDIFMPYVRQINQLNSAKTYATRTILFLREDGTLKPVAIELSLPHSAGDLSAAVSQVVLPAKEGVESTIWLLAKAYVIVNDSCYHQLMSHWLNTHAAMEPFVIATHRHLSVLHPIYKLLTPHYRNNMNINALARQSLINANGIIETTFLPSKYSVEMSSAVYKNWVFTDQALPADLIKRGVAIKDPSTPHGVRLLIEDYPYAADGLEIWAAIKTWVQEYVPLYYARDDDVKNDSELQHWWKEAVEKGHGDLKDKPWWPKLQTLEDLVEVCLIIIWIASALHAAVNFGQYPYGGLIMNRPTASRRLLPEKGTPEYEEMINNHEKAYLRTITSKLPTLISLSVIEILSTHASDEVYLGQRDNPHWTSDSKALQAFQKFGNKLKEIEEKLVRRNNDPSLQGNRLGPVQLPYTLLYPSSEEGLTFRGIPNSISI

SMILES	ABTS (µmol TE/g) [1]	ABTS EC50 [1]	FRAP (µmol Fe^2+/g) [2]	DPPH EC50 [3]	LOXI IC50 [4]	ABTS EC50 ([1]; listed as ascorbic acid) [µg/mL]	DPPH EC50 ([3]; listed as ascorbic acid) [µg/mL]
COc1cc(/C=C/C(=O)NCCCCN(CCCNC(=O)/C=C/c2ccc(O)c(OC)c2)C(=O)/C=C/c2ccc(O)c(OC)c2)ccc1O [DCMMBP3-2, N^1, N^5, N^10-tri-(E, E, E)-feruloyl spermidine]	2,339.16 ± 34.62^b µmol TE/g	28.29 ± 1.05^b µg/mL	3,091.78 ± 44.48^b µmol Fe^2+/g	57.7 ± 2.77^a µg/mL	11.57 ± 0.93^a µg/mL		
O=C1O[C@H]([C@@H](O)CO)C(O)=C1O [Ascorbic acid, reference compound]		44.54 ± 0.19^a µg/mL and 44.54 ± 0.19^c µg/mL and 44.54 ± 0.19^b µg/mL		68.00 ± 1.13^a µg/mL and 68.00 ± 1.13^b µg/mL		44.54 ± 0.19	68.00 ± 1.13
COc1cc(C=CC(=O)NCCCCN(CCCNC(=O)C=Cc2ccc(O)c(OC)c2)C(=O)C=Cc2ccc(O)c(OC)c2)ccc1O [DCMMBP3-1, N^1, N^5, N^10-triferuloyl spermidine]	2,527.63 ± 7.99^a µmol TE/g	25.38 ± 0.67^a µg/mL	3,477.33 ± 52.07^a µmol Fe^2+/g	53.05 ± 2.60^a µg/mL	11.31 ± 0.46^a µg/mL		
